Test results taken from publication PMC6631119, “Nasal Administration and Plasma Pharmacokinetics of Parathyroid Hormone Peptide PTH 1-34 for the Treatment of Osteoporosis” (Pharmaceutics, 2019).
Read-outs that look alike come from different tables or passages of the source.

Columns and labels:
[1] = cited from earlier work
[2] = Healthy human volunteer plasma pharmacokinetics of PTH 1-34 (open cross-over, ELISA); assay type: in vivo; conditions: human
Procedure: An open cross-over clinical IMP (investigative medicinal product) study was conducted in seven healthy female subjects aged over 55 years (mean age 67.7, range 58 to 81 years). Each participant provided informed consent in accordance with ethical committee requirements and good clinical practice. Pre-study screening assessments were carried out within 21 days of the participants receiving their first dose (Supplementary Materials: Section S1). Inclusion and exclusion criteria were applied (Supplementary Materials: Section S2). Participants were admitted to the study centre on the morning of dosing, having abstained from alcohol and smoking for at least 24 h previously and fasted from midnight. Participants were given a light meal on arrival. A cannula was then positioned in the participant’s arm or hand to facilitate the collection of blood samples. The pre-dose sample was taken. Participants received a single subcutaneous injection of 20 μg teriparatide into the abdomen at their first trial visit. Following a seven day wash out period, each participant self-administered 90 μg PTH 1-34 from the nasal spray formulation using the Rexam SP270 nasal spray device; the patients had previously been trained in operation of the Rexam device. Any episodes of sneezing after administration of the nasal formulation were recorded. The nasal spray formulation contained Tc-99m-DTPA, 3–5 MBq per Rexam SP270 nasal spray dose, resulting in an effective radiation dose of less than 0.14 mSv to each participant.
Following either subcutaneous or intranasal dosing, 10 mL blood samples (Becton Dickinson sodium heparin) were taken at 5, 15, 30, 60 120, 180, 240, 300 and 360 min. After each sample was taken, the cannula was flushed with 10 mL 0.9% saline. Blood was stored on ice and centrifuged within 30 min to prepare plasma (4 °C, 1100–1300 g, 10 min). These samples were stored at −20 °C before dispatching to Simbec Research Ltd. (Merthyr Tydfil, UK) for quantification by validated ELISA, in compliance with The UK Good Laboratory Practice Regulations 1999 (Statutory Instrument No. 310 6) and subsequent amendment, OECD Principles of Good Laboratory Practice (Paris 1998) and EC Commission Directive 2004/10/EC of February 2004.
Pharmacokinetic data were analysed using Phoenix® WinNonlin® 5.1 (Certara USA, Inc., Princeton, NJ, USA) from quantified PTH 1-34 in the plasma, using recorded sampling times. Summary statistics (mean, median, SD, coefficient of variation [CV%], minimum, maximum, n) and the following plasma pharmacokinetic parameters were calculated: • Cmax • Tmax • Terminal half-life (t1/2) • AUC to 2 h (AUC0–2h) • AUC to last measured time point (AUClast) and corresponding Frel for nasal formulation

[3] = conscious rats, nasal liquid formulation with Solutol HS15 (10%), first 2 h after administration; cited from earlier work
[4] = human volunteers, nasal powder formulations with Solutol HS15 compared to subcutaneous injection of hGH; cited from earlier work
Source text: With the aim of improving upon the pharmacokinetics of the liquid nasal spray in humans, our continued research evaluated a bioadhesive powder formulation within a large animal (ovine) model. This is a model known to be highly representative of intranasal drug delivery that closely replicates the clinical findings. […] Likewise, we have published o ...

[5] = human, subcutaneous injection, estimated

CC[C@H](C)[C@H](NC(=O)[C@H](CCC(=O)O)NC(=O)[C@H](CO)NC(=O)[C@@H](NC(=O)[C@@H](N)CO)C(C)C)C(=O)N[C@@H](CCC(N)=O)C(=O)N[C@@H](CC(C)C)C(=O)N[C@@H](CCSC)C(=O)N[C@@H](Cc1cnc[nH]1)C(=O)N[C@@H](CC(N)=O)C(=O)N[C@@H](CC(C)C)C(=O)NCC(=O)N[C@@H](CCCCN)C(=O)N[C@@H](Cc1cnc[nH]1)C(=O)N[C@@H](CC(C)C)C(=O)N[C@@H](CC(N)=O)C(=O)N[C@@H](CO)C(=O)N[C@@H](CCSC)C(=O)N[C@@H](CCC(=O)O)C(=O)N[C@@H](CCCN=C(N)N)C(=O)N[C@H](C(=O)N[C@@H](CCC(=O)O)C(=O)N[C@@H](Cc1c[nH]c2ccccc12)C(=O)N[C@@H](CC(C)C)C(=O)N[C@@H](CCCN=C(N)N)C(=O)N[C@@H](CCCCN)C(=O)N[C@@H](CCCCN)C(=O)N[C@@H](CC(C)C)C(=O)N[C@@H](CCC(N)=O)C(=O)N[C@@H](CC(=O)O)C(=O)N[C@H](C(=O)N[C@@H](Cc1cnc[nH]1)C(=O)N[C@@H](CC(N)=O)C(=O)N[C@@H](Cc1ccccc1)C(=O)O)C(C)C)C(C)C [teriparatide]
absolute bioavailability of subcutaneous injection ([1]; human subjects, subcutaneous injection into the abdominal wall, intravenous injection 100%): up to 95%
prolongation in the time to reach peak concentration (Tmax), thigh as opposed to abdomen [1, 5]: 1.5 min
reduction in maximum plasma teriparatide concentrations (Cmax), thigh as opposed to abdomen [1, 5]: 18%
slower rate of absorption, injection into the thigh as opposed to the abdomen [1, 5]: 21%
Tmax ([2]; female, plasma, sc, 20 ug, healthy female volunteers aged over 55 y, single 20 μg teriparatide subcutaneous injection into abdomen (Forsteo pen), plasma ELISA, mean of n = 7): 21.4 min
AUC(0-t) ([2]; female, plasma, sc, 20 ug, healthy female volunteers aged over 55 y, single 20 μg teriparatide subcutaneous injection into abdomen (Forsteo pen), plasma ELISA, mean of n = 7, read-out: AUC0–2h (converted)): 0.29 ng·h/mL
AUC(0-t) ([2]; female, plasma, sc, 20 ug, healthy female volunteers aged over 55 y, single 20 μg teriparatide subcutaneous injection into abdomen (Forsteo pen), plasma ELISA, mean of n = 7, read-out: AUC0–last (converted)): 0.345 ng·h/mL
Cmax ([2]; female, plasma, sc, 20 ug, healthy female volunteers aged over 55 y, single 20 μg teriparatide subcutaneous injection into abdomen (Forsteo pen), plasma ELISA, mean of n = 7, read-out: Cmax): 0.253 ng/mL
time by which teriparatide concentrations returned to zero ([2]; 20 μg teriparatide subcutaneous injection): ≤ 6 h
elimination t1/2 ([2]; 20 μg teriparatide subcutaneous injection, mean): approximately 1 h
half-life ([2]; sc, 20 ug, healthy female volunteers aged over 55 y, single 20 μg teriparatide subcutaneous injection into abdomen (Forsteo pen), plasma ELISA, mean of n = 7, read-out: t½): 64.8 min

hGH: human growth hormone (MW 22kDa), given nasally with Solutol HS15 in earlier studies
relative bioavailability [3]: 49%
relative bioavailability [4]: about 3%
